Holding throughout (format): cell-based
Series [1] has as its system human renal cancer OS-RC-2 cells. Briefly: Growth inhibition test on human renal cancer OS-RC-2 cells (WST-1, % viability). The note with it: test compound 10 μmol/L, 72 hours, cells without test compound = 100%. How it is done: (§1) One thousand cells of human renal cancer OS-RC-2 were inoculated into each well of a 96-well microplate (manufactured by Nunc Corp.), and using RPMI1640 medium (culture medium) containing 10% FCS, preculturing was performed in a 5% carbon dioxide incubator at 37° C. for 24 hours. A DMSO solution of each test compound prepared in a concentration of 10 mmol/L was diluted with the culture medium to a final concentration of 10 μmol/L, and the diluted solution was added to each well. The individual wells were further cultured in the 5% carbon dioxide incubator at 37° C. for 72 hours. After completion of the culturing, 10 μL of WST-1 labeled mixture (manufactured by Roche Diagnostic Corp.) was added to each well, and culturing was performed in the 5% carbon dioxide incubator at 37° C. for 2 hours. Using a microplate spectrophotometer (Model 550; manufactured by Bio-Rad), the absorbance of each well was measured at 450 nm and 655 nm. The value obtained by subtracting the absorbance at 450 nm from the absorbance at 655 nm (absorbance difference) was calculated for each well. The value for cells not incorporated with a test compound was designated as 100%, and the value at a well not containing cells was designated as 0%. By comparing these values with the absorbance difference obtained at the well in which each test compound was added, the cell viability (% viability) after treatment with the test compound was calculated.
(In general: Tetrazolium assays rely on reduction of a dye to a coloured formazan, in cell work by metabolically active cells.)

Series [2] deals with human chronic myelocytic leukemia K562 cells. Put plainly: Growth inhibition test on human chronic myelocytic leukemia K562 cells (WST-1, % viability). As to conditions: test compound 10 μmol/L, 72 hours, cells without test compound = 100%. How it is done: as §1, with “chronic myelocytic leukemia K562” for “renal cancer OS-RC-2”, “fetal calf serum (FCS),” for “FCS,”, “dimethyl sulfoxide (DMSO)” for “DMSO”, “WST-1 {4-[3-(4-Iodophenyl)-2-(4-nitrophenyl)-2H-5-tetrazolio]-1,3-benzene disulfonate}” for “WST-1”, “(SpectraMax 340PC384;” for “(Model 550;”, “Nihon Molecular Devices),” for “Bio-Rad),”

The test system of series [3] is human prostate cancer 22Rv1 cells. Put plainly: Growth inhibition test on human prostate cancer 22Rv1 cells (WST-1, % viability). As to conditions: test compound 10 μmol/L, 72 hours, cells without test compound = 100%. As to the method:
as §1, with “Five” for “One”, “prostate” for “renal”, “22Rv1” for “OS-RC-2”

Series [4] relates to human acute myelocytic leukemia MV4; 11 cells. Briefly: Growth inhibition test on human acute myelocytic leukemia MV4; 11 cells (WST-1, % viability). As to conditions: test compound 10 μmol/L, cells without test compound = 100%. How it is done:
as §1, with “Ten thousand” for “One thousand”, “human acute myelocytic leukemia MV4; 11” for “human renal cancer OS-RC-2”, “using IMDM” for “using RPMI1640”, “for 1 hour.” for “for 2 hours.”, “spectrophotometer (SpectraMax 340PC384;” for “spectrophotometer (Model 550;”, “by Nihon Molecular Devices),” for “by Bio-Rad),”

Structures are written as SMILES.

Regarding `CCc1c(O)cc(O)c(C(=O)c2ccc(OC(F)F)cc2)c1CC(=O)N(CCO)CCOC` [Compound 91], the “Viability of tumor cells (% viability), Human renal cancer OS-RC-2 cells” value in series [1] came to 17%. The “Viability of tumor cells (% viability), Human chronic myelocytic leukemia K562 cells” value in series [2] is 4%. Further, in series [3], the “Viability of tumor cells (% viability), Human prostate cancer 22Rv1 cells” value turned out to be 5%. Further, the “Viability of tumor cells (% viability), Human acute myelocytic leukemia MV4; 11 cells” value in series [4] is on record as 0%.

For the compound `CCc1c(O)cc(O)c(C(=O)c2ccc(O)c(OC)c2)c1CC(=O)N(CCOC)CCOC` [Compound 106], the “Viability of tumor cells (% viability), Human renal cancer OS-RC-2 cells” value in series [1] is 16%. In addition, the “Viability of tumor cells (% viability), Human chronic myelocytic leukemia K562 cells” value in series [2] worked out at 4%. Moreover, in series [3], the “Viability of tumor cells (% viability), Human prostate cancer 22Rv1 cells” value came to 5%. In addition, in series [4], the “Viability of tumor cells (% viability), Human acute myelocytic leukemia MV4; 11 cells” value amounted to 0%.

Regarding `CCc1c(O)cc(O)c(C(=O)c2ccc(C(F)(F)F)cc2)c1CC(=O)N(CCO)CCOC` [Compound 144], in series [1], the “Viability of tumor cells (% viability), Human renal cancer OS-RC-2 cells” value came to 16%. Moreover, the “Viability of tumor cells (% viability), Human chronic myelocytic leukemia K562 cells” value in series [2] came to 4%. Further, the “Viability of tumor cells (% viability), Human prostate cancer 22Rv1 cells” value in series [3] was found to be 5%. Moreover, the “Viability of tumor cells (% viability), Human acute myelocytic leukemia MV4; 11 cells” value in series [4] is 0%.

Consider `CCc1c(O)cc(O)c(C(=O)c2ccc(OC)cc2)c1CC(=O)N(CCO)CCOC` [Compound 33], for which, in series [1], the “Viability of tumor cells (% viability), Human renal cancer OS-RC-2 cells” value came out at 18%. The “Viability of tumor cells (% viability), Human chronic myelocytic leukemia K562 cells” value in series [2] is given as 4%. The “Viability of tumor cells (% viability), Human prostate cancer 22Rv1 cells” value in series [3] stood at 5%. Moreover, the “Viability of tumor cells (% viability), Human acute myelocytic leukemia MV4; 11 cells” value in series [4] is recorded as 0%.

Turning to `CCc1c(O)cc(O)c(C(=O)c2ccc(OC)cc2)c1CC(=O)N(CCO)Cc1ccco1` [Compound 69], the “Viability of tumor cells (% viability), Human renal cancer OS-RC-2 cells” value in series [1] is recorded as 16%. In series [2], the “Viability of tumor cells (% viability), Human chronic myelocytic leukemia K562 cells” value is 4%. In series [3], the “Viability of tumor cells (% viability), Human prostate cancer 22Rv1 cells” value is on record as 5%. In addition, the “Viability of tumor cells (% viability), Human acute myelocytic leukemia MV4; 11 cells” value in series [4] is 0%.

Take `CCc1c(O)cc(O)c(C(=O)c2ccc(OC)cc2)c1CC(=O)N(CCO)CCO` [Compound 13]: the “Viability of tumor cells (% viability), Human renal cancer OS-RC-2 cells” value in series [1] worked out at 66%. Moreover, the “Viability of tumor cells (% viability), Human chronic myelocytic leukemia K562 cells” value in series [2] was 26%. Moreover, the “Viability of tumor cells (% viability), Human prostate cancer 22Rv1 cells” value in series [3] is 6%. Further, the “Viability of tumor cells (% viability), Human acute myelocytic leukemia MV4; 11 cells” value in series [4] is 0%.

Take `CCOc1ccc(C(=O)c2c(O)cc(O)c(CC)c2CC(=O)N(CCO)CCOC)cc1` [Compound 122]: in series [1], the “Viability of tumor cells (% viability), Human renal cancer OS-RC-2 cells” value was determined as 15%. Further, the “Viability of tumor cells (% viability), Human chronic myelocytic leukemia K562 cells” value in series [2] is on record as 4%. The “Viability of tumor cells (% viability), Human prostate cancer 22Rv1 cells” value in series [3] is listed as 5%. Further, the “Viability of tumor cells (% viability), Human acute myelocytic leukemia MV4; 11 cells” value in series [4] worked out at 0%.
